Measured values taken from paper PMC12765074, “Mechanistic insights into enterocin C targeting the undecaprenyl phosphate recycling protein BacA” (The Journal of Biological Chemistry, 2025).
“And” between values parts separate entries of the source, which are not always exact repeats. Equal values may be shown once. Marks after values point to notes of the source that are not given here.

What was measured:
[1] = target: T1, BacAef (Enterococcus faecalis, UniProt A0ACD6TE02); type: biochemical; details: DDM micelles; 20 mM Tris-HCl pH 7.4, 400 μM CaCl2, 150 mM NaCl, 0.1% DDM, 50 μM [14C]C55-PP, 10 min, 37 °C, TLC; EntC vs EntC1 p-value = 0.0007; read-out: IC50, BacAef C55-PP phosphatase activity
[2] = tested on: PgpB-liposomes; experiment: proteoliposome permeabilisation assay (BCECF), PgpB-liposomes; type: biochemical, Escherichia coli; details: EntC
[3] = tested on: EfΔbacA cells (pIL252 empty vector); experiment: spot assay on bacA-deleted strain; type: cell-based, Enterococcus faecalis; details: spot on BHI agar
[4] = target: BacAef K209A (Enterococcus faecalis, UniProt A0ACD6TE02, K221A); experiment: ITC, BacAef K209A; type: binding; details: 20 °C
Procedure: (§1) The experiments were carried out at 20 °C.

[5] = tested on: E. faecalis EfΔbacA cells expressing BacAef D106A; experiment: survival test; type: cell-based, Enterococcus faecalis; details: 0.5 μM EntC, 30 min, 37 °C, three experiments
[6] = tested on: E. faecalis EfΔbacA cells expressing BacAef R172A; experiment: survival test; type: cell-based, Enterococcus faecalis; details: 0.5 μM EntC, 30 min, 37 °C, p ≤ 0.0001, three experiments
[7] = tested on: E. faecalis EfΔbacA cells expressing BacAef S26A; experiment: survival test; type: cell-based, Enterococcus faecalis; details: 0.5 μM EntC, 30 min, 37 °C, p ≤ 0.01, three experiments
[8] = target: T2, BacAec (Escherichia coli, UniProt P60932); details: titration of EntC into BacAec
T2 sequence (P60932 whole entry): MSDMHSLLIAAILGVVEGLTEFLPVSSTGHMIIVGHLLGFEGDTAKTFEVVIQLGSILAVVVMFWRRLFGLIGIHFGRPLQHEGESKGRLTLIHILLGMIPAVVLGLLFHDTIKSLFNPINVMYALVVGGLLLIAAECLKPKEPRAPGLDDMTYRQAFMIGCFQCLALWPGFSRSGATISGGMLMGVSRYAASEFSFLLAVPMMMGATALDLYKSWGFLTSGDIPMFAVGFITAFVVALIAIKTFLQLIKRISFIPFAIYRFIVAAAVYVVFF
Procedure: (§2) ITC experiments were performed with an ITC200 isothermal titration calorimeter from MicroCal (Malvern Panalytical, Malvern, UK). The experiments were carried out at 20 °C. The protein concentration in the microcalorimeter cell (0.2 ml) was 33 μM. Nineteen 2-μl injections of peptides at 400 μM were performed at intervals of 240 s while stirring at 500 rpm. To limit buffer mismatching effect between the cell and the syringe, and the heat-of-dilution effect for having glycerol in the protein solution, the latter were extensively dialyzed, prior to the ITC measurement, in a buffer containing 20 mM Tris-HCl pH 7.4, 200 mM NaCl, 0.1% DDM, to remove glycerol. Then, the dialysis buffer was used to dilute the EntC peptides to further limit buffer mismatching. The experimental data were fitted to theoretical titration curves with the software supplied by MicroCal (ORIGIN). This software uses the relationship between the heat generated by each injection and ΔH (enthalpy change in kcal/mol), Ka (the association binding constant in M^−1), n (the number of binding sites), total protein concentration and free and total ligand concentrations.

[9] = target: T1, BacAef; type: binding; details: DSC, BacAef 33 μM + peptides 66 μM, 60 °C/h, representative of triplicate
Procedure: Thermal stability of BacA protein in different mixtures of peptides was performed by DSC on a MicroCal model VP-DSC (Malvern Panalytical, Malvern, UK). BacA (33 μM) was mixed with different mixtures of peptides at twice the BacA concentration (i.e. 66 μM). Each measurement was preceded by a baseline scan with the standard buffer. Scans were performed at 1 K/min (60 °C/h) temperature ramp between 30 °C and 100 °C. The heat capacity of the buffer was subtracted from that of the protein sample before analysis. The thermodynamic parameters were determined by fitting the data to the following equation: ΔCp(T)=Kd(T)ΔHcalΔHvH/[1+Kd(T)]^2RT^2 where Kd is the equilibrium constant for a two-state process, ΔHvH the enthalpy calculated based on a two-state process and ΔHcal the measured enthalpy.

[10] = target: BacAef R172A (Enterococcus faecalis, UniProt A0ACD6TE02, R184A); experiment: ITC, BacAef R172A; type: binding; details: 20 °C
Procedure: as §1

[11] = tested on: E. faecalis EfΔbacA cells expressing BacAef K209A; experiment: survival test; type: cell-based, Enterococcus faecalis; details: 0.5 μM EntC, 30 min, 37 °C, p ≤ 0.0001, three experiments
[12] = target: T2, BacAec; details: DDM micelles
Procedure: The C55-PP phosphatase assays were performed in a 10-μl reaction mixture containing 20 mM Tris-HCl, pH 7.4, 400 μM CaCl2, 150 mM NaCl, 0.1% (w/v) DDM and 50 μM radiolabeled [^14C]C55-PP (900 Bq). The BacA concentration was adjusted in order to achieve less than 30% substrate hydrolysis. The mixture was incubated for 10 min at 37 °C, and the reaction was stopped by freezing in liquid nitrogen. Substrates and products were separated by thin-layer chromatography on precoated silica gel 60 plates (Merck) using 1-propanol/ammonium hydroxide/water (6:3:1, v/v/v) as the mobile phase. Radioactive spots were located and quantified using a radioactivity scanner (model Multi-Tracermaster LB285, Berthold-France). When the phosphatase activity was tested at different pH values, the following buffers were used at 20 mM: sodium acetate (pH 4–7) or Tris-HCl (pH 7–8). In the EDTA assay, the protein was pre-treated with 200 μM EDTA. For pH and EDTA assays, CaCl2 was omitted from the reaction buffer.

[13] = tested on: E. faecalis; details: ref [17]; cited from earlier work
[14] = target: BacAef K209A D110A D106A; experiment: ITC, BacAef K209A D110A D106A; type: binding, Enterococcus faecalis; details: 20 °C, 400 μM into [BacAef K209A D110A D106A] 33 μM, pH 7.4, 0.1% DDM, at least triplicate
Procedure: as §1

[15] = tested on: E. faecalis EfΔbacA cells expressing BacAef variants (K209A variants); experiment: spot-on-lawn assay, D106/D110/K209 variants; type: cell-based, Enterococcus faecalis; details: compared to wild-type BacAef
[16] = target: BacAef E20A (Enterococcus faecalis, UniProt A0ACD6TE02, E32A); experiment: ITC, BacAef E20A; type: binding; details: 20 °C
Procedure: as §1

[17] = tested on: E. faecalis EfΔbacA cells expressing BacAef K209A D106A; experiment: survival test; type: cell-based, Enterococcus faecalis; details: 0.5 μM EntC, 30 min, 37 °C, p ≤ 0.01, three experiments
[18] = target: BacAef S26A (Enterococcus faecalis, UniProt A0ACD6TE02, S38A); experiment: ITC, BacAef S26A; type: binding; details: 20 °C
Procedure: as §1

[19] = tested on: E. faecalis EfΔbacA cells expressing BacAef K209A D106A D110A; experiment: survival test; type: cell-based, Enterococcus faecalis; details: 0.5 μM EntC, 30 min, 37 °C, p ≤ 0.0001, three experiments
[20] = target: T2, BacAec; details: highest concentration tested 100 μM
Procedure: The reconstitution of BacA and PgpB in liposomes was achieved through adapted protocols previously described ([48]). Liposomes were prepared by rehydrating a lipid film of DOPC: DOPG: DOPE (3 mg: 0.75 mg: 1.25 mg) after 4 h of desiccation by adding 1 ml of buffer (20 mM HEPES, pH 7.5, 50 mM NaCl, 15% glycerol). […] The lipid suspension underwent 10 freeze-thaw cycles in liquid nitrogen and was extruded through a 100 nm polycarbonate membrane (Millipore). Protein reconstitution was performed by destabilizing the liposomes with 5.5 mM Triton X-100 for 15 min. The protein was added at a final concentration of 15 μg/ml and the mixture was incubated at 4 °C for 15 min.
The liposomes were used to measure the C55-PP phosphatase activity of BacA in a membrane environment as follows. For each kinetic assay, 5 μl of a reaction mixture containing 20 μM C15-PP, 20 μM [^14C]C5-PP, 180 μM C5-PP in 20 mM HEPES, pH 7.5, 50 mM NaCl, and 15% glycerol were mixed with 5 μl of protein-free liposomes (as a control) or BacA-containing liposomes. The mixture was then supplemented with UppS at a final concentration of 0.2 mg/ml to initiate the enzymatic synthesis of C55-PP. The EntC peptides were added at various concentrations from a water solution. […] Substrates and products were separated and quantified by thin-layer chromatography as previously described for C55-PP phosphatase assay in detergent.

[21] = target: T1, BacAef; experiment: ITC, BacAef; type: binding; details: ITC, 20 °C
Procedure: as §2

[22] = tested on: E. faecalis EfΔbacA cells expressing BacAef D106A D110A; experiment: survival test; type: cell-based, Enterococcus faecalis; details: 0.5 μM EntC, 30 min, 37 °C, three experiments

## Enterocin C [EntC]
[1]
  IC50: 400 ± 100 nM
[2]
  membrane permeabilization of PgpB-liposomes: no permeabilization effect
[3]
  susceptibility of EfΔbacA strain: full resistance
[4]; 400 μM into [BacAef K209A] 33 μM
  n: 0.46 ± 0.02
[4]; 400 μM into [BacAef K209A] 33 μM, pH 7.4, 0.1% DDM, at least triplicate
  Kd: 1840 ± 335 nM
[4]; into [BacAef K209A]
  -TΔS: 0.1 kcal/mol
  ΔH: -8.3 kcal/mol
[5]
  % of survival: 1.6 ± 1.0%
[6]
  % of survival: 7.8% and 7.8 ± 0.8 ^d %
[7]
  % of survival: 6.8% and 6.8 ± 2.4 ^c %
[8]
  binding to BacAec (ITC): no binding
[9]; 30-100 °C, Tris-HCl pH 7.5, 0.1% DDM, BacAef alone 66.3 °C
  melting temperature (Tm) of BacAef: 83.8 °C
[9]; BacAef alone 26.7 kcal/mol
  enthalpy of denaturation (ΔH) of BacAef: 83.7 kcal/mol
[10]; 400 μM into [BacAef R172A] 33 μM
  n: 0.30 ± 0.03
[10]; 400 μM into [BacAef R172A] 33 μM, pH 7.4, 0.1% DDM, at least triplicate
  Kd: 1610 ± 650 nM
[10]; into [BacAef R172A]
  -TΔS: 3.6 kcal/mol
  ΔG: -7.8 kcal/mol
  ΔH: -11.4 kcal/mol
[11]
  % of survival: 11% and 11 ± 1.0 ^d %
[12]
  inhibition of BacAec C55-PP phosphatase activity: not inhibited
[13]
  activity against E. faecalis: active against the opportunistic pathogen E. faecalis
[14]
  KD: No binding
[15]
  susceptibility of EfΔbacA expressing K209A variants: small reduction in susceptibility
[16]; 400 μM into [BacAef E20A] 33 μM
  n: 0.69 ± 0.01
[16]; 400 μM into [BacAef E20A] 33 μM, pH 7.4, 0.1% DDM, at least triplicate
  Kd: 190 ± 40 nM
[16]; into [BacAef E20A]
  -TΔS: 13.0 kcal/mol
  ΔG: -9 kcal/mol
  ΔH: -22.0 kcal/mol
[17]
  % of survival: 14 ± 4.0 ^c %
[18]; 400 μM into [BacAef S26A] 33 μM
  n: 0.80 ± 0.02
[18]; 400 μM into [BacAef S26A] 33 μM, pH 7.4, 0.1% DDM, at least triplicate
  Kd: 439 ± 125 nM
[18]; into [BacAef S26A]
  -TΔS: 8.5 kcal/mol
  ΔG: -8.5 kcal/mol
  ΔH: -17.0 kcal/mol
[19]
  % of survival: 54% and 54 ± 11 ^d %
[20]
  inhibition of BacAec in liposomes: no inhibitory effect
[21]; into [BacAef] 33 μM
  -TΔS: 14.1 kcal/mol
  ΔG: -9.0 kcal/mol
  ΔH: -23.1 kcal/mol
[21]; peptides 400 μM into [BacAef] 33 μM, 20 mM Tris-HCl pH 7.4, 200 mM NaCl, 0.1% DDM, at least triplicate
  Kd: 196 ± 47 nM
[21]; peptides 400 μM into [BacAef] 33 μM, pH 7.4, 0.1% DDM, at least triplicate
  n: 0.90 ± 0.01
[22]
  % of survival: 4.0 ± 3.0%
